Measured values reported in publication PMC11044151, “Development of Half-Sandwich Ru, Os, Rh, and Ir Complexes Bearing the Pyridine-2-ylmethanimine Bidentate Ligand Derived from 7-Chloroquinazolin-4(3H)-one with Enhanced Antiproliferative Activity” (ACS Omega, 2024).

Legend:
Format in all cases: cell-based, human
SW620M = assay: Neutral red uptake antiproliferative assay, MDR line SW620M; conditions: for IC50: exposure time 72 h, n = 3, ABCC1-overexpressing MDR line; for activity factor IC50(1)/IC50(3a–4d), SW620M: vs corresponding amine (R)-1 or (S)-1, 72 h
Description: (§1) Next, we evaluated the cytotoxicity of the synthesized complexes toward the panel of six multidrug-resistant (MDR) cell lines derived from SW620 and characterized by the overexpression of various ABC proteins, namely, ABCG2 (SW620C and SW620Mito), ABCC1 (SW620M and SW620E), and ABCB1 (SW620D, SW620E, and SW620V) (Table 3, Figures S29 and S32). […] The activity of the complexes derived from the ligand (S)-2 is also considerably higher than that of the compounds containing the ligand (R)-2. The cytotoxicity of both rhodium 4c and iridium 4d complexes is higher than that of amine (S)-1. In the case of 4c, the increase in cytotoxicity is low, with the highest value of 3.7-fold for the SW620Mito line. […] Compound 4d also exerts a 2.1- and 2.6-fold higher cytotoxicity than […] against the SW620C and SW620D lines.
(§2) For this purpose, neutral red uptake assay was performed. […] The results were presented as a percentage of control.

SW620 = assay: Neutral red uptake antiproliferative assay, SW620; conditions: for IC50: exposure time 72 h, n = 3, 95% CI given; for activity factor IC50(1)/IC50(3a–4d), SW620: vs corresponding amine (R)-1 or (S)-1, 72 h
Description: To assess the impact of conjugating half-sandwich complexes with amines 1 via an imine-pyridine ligand on biological activity, we examined the antiproliferative potential of (R)- and (S)-1 and organometallic conjugates 3a–d and 4a–d in selected human cancer cell lines: alveolar basal epithelial cell adenocarcinoma (A549), colorectal adenocarcinomas (Colo205 and SW620), colorectal carcinoma (HCT116), hepatocellular carcinoma (HepG2), and breast adenocarcinoma (MCF7). The choice of cell lines was dictated by results of previously published clinical trials on ispinesib.[49],[50]
Cell lines used in this study were purchased from the American Type Culture Collection via LGC Standards. Human normal lung fibroblasts (MRC-5), alveolar basal epithelial cell adenocarcinoma (A549), colorectal adenocarcinoma (Colo205), hepatocellular carcinoma (HepG2), breast adenocarcinoma (MCF7), and colorectal adenocarcinoma (SW620) and its MDR variants[55] were cultured in standard conditions (37 °C, 5% CO2, 100% relative humidity) in high glucose DMEM medium supplemented with GlutaMax, HEPES (ThermoFisher Scientific) and 10% fetal bovine serum (EURx, Poland). All cell lines were tested for Mycoplasma contamination using a MycoProbe mycoplasma detection kit (R&D System).
For this purpose, neutral red uptake assay was performed. 10^4 of cells were seeded per well of a 96-well plate and left overnight to allow cells to attach to the surface. Then, the cells were exposed to a desired concentration of tested compounds. Stock solutions were prepared in DMSO and were used immediately after preparation. The final concentration of DMSO was constant and nontoxic (0.1% v/v). After 70 h of culture, neutral red was added to the final concentration of 1 mM. After 2 h of incubation with the dye, the medium was aspirated and cells were washed with ice-cold PBS. The dye was released using 100 μL of the solubilizer (1% acetic acid in 50% ethanol) on an orbital shaker (10 min). The absorbance at 540 nm was measured using an EnVision multilabel plate reader (PerkinElmer). […] The IC90 and IC50 parameters were calculated using GraphPad Prism v9 software using the five-parameter nonlinear logistic regression model.

SW620V = assay: Neutral red uptake antiproliferative assay, MDR line SW620V; conditions: for IC50: exposure time 72 h, n = 3, ABCB1-overexpressing MDR line; for activity factor IC50(1)/IC50(3a–4d), SW620V: vs corresponding amine (R)-1 or (S)-1, 72 h
Description: as §1, §2

SW620Mito = assay: Neutral red uptake antiproliferative assay, MDR line SW620Mito; conditions: for IC50: exposure time 72 h, n = 3, ABCG2-overexpressing MDR line; for activity factor IC50(1)/IC50(3a–4d), SW620Mito: vs corresponding amine (R)-1 or (S)-1, 72 h
Description: as §1, §2

SW620 cells = assay: ROS generation, dihydrorhodamine 123 oxidation assay; conditions: SW620, 1 μM compound, 4 h, DHR123 with 10 μM verapamil; vs control or (R)- and (S)-1
Description: Metal complexes often induce reactive oxygen species (ROS) generation in cells,[51] which may increase their cytotoxic activity compared to purely organic molecules. To study the impact of the synthesized compounds on ROS production, we have measured the ROS generation in SW620 cells by the dihydrorhodamine 123 (DHR123) oxidation assay (Figure 9). However, there is no correlation between the antiproliferative potential and the ability of a compound to generate ROS.
Dihydrorhodamine 123 oxidation was used as an indicator of intracellular ROS production. For this purpose, SW620 cells were seeded in 6-well plates at a density of 10^5 cells per well. The cells were left overnight (time needed for them to attach to the surface). Then, 1 μM tested compounds were added along with 1 μM DHR123. Additionally, since DHR123 is a substrate of ABCB1 (which may interfere in this assay), 10 μM verapamil, an inhibitor of this protein, was added. The cells were cultured for an additional 4 h at 37 °C, and then the cells were harvested by trypsinization, resuspended in a complete medium, and analyzed using a LSRII flow cytometer (Becton Dickinson) in a FITC channel (530/30 nm). The results are presented as a percentage of control (median fluorescence in the presence of DMSO).

SMILES | IC50 (SW620M) [nM] | activity factor IC50(1)/IC50(3a–4d), SW620M (SW620M) | IC50 (SW620) [nM] | activity factor IC50(1)/IC50(3a–4d), SW620 (SW620) | IC50 (SW620V) [nM] | activity factor IC50(1)/IC50(3a–4d), SW620V (SW620V) | IC50 (SW620Mito) [nM] | activity factor IC50(1)/IC50(3a–4d), SW620Mito (SW620Mito) | ROS generation (in words) (SW620 cells)
CC(C)[C@@H](N=Cc1ccccn1)c1nc2cc(Cl)ccc2c(=O)n1Cc1ccccc1.Cc1c(C)c(C)[c-](C)c1C.F[P-](F)(F)(F)(F)F.[Cl-].[Ir+3] [Compound 3d, [(Cp*)Ir((R)-2)Cl]PF6] | 247 | (0.976) | 198 | (0.485) | 267 | (0.771) | 268 | (0.974) | –
CC(C)[C@@H](N=Cc1ccccn1)c1nc2cc(Cl)ccc2c(=O)n1Cc1ccccc1.Cc1ccc(C(C)C)cc1.F[P-](F)(F)(F)(F)F.[Cl-].[Os+2] [Compound 3b, [(cym)Os((R)-2)Cl]PF6] | 591 | (0.408) | 556 | (0.173) | 1030 | (0.200) | 748 | (0.349) | –
CC(C)[C@@H](N=Cc1ccccn1)c1nc2cc(Cl)ccc2c(=O)n1Cc1ccccc1.Cc1c(C)c(C)[c-](C)c1C.F[P-](F)(F)(F)(F)F.[Cl-].[Rh+3] [Compound 3c, [(Cp*)Rh((R)-2)Cl]PF6] | 1180 | (0.204) | 152 | (0.632) | 210 | (0.981) | 524 | (0.498) | –
CC(C)[C@@H](N=Cc1ccccn1)c1nc2cc(Cl)ccc2c(=O)n1Cc1ccccc1.Cc1ccc(C(C)C)cc1.F[P-](F)(F)(F)(F)F.[Cl-].[Ru+2] [Compound 3a, [(cym)Ru((R)-2)Cl]PF6] | 3450 | (0.070) | 1220 | (0.079) | 4710 | (0.044) | 4330 | (0.060) | increase the level of ROS
